The test system of experiment [1] is arthritic rats (collagen-induced arthritis model). In words: Mechanical hyperalgesia (PAM) in CIA rats. It is filed as in vivo, rat. The following applies: 15 mg/kg, mean ± SEM. How it is done:
Male Lewis rats were immunised by intradermal injection at the base of the tail with an emulsion containing 150 μg of bovine collagen type II (bCII) in complete Freund’s adjuvant (CFA) or received an injection with incomplete Freund’s adjuvant (sham group). Three weeks after the first immunisation, animals were boosted with the same procedure. Three days after booster injection, arthritis had developed in all animals but the sham group. Oedema was assessed via plethysmometer (Ugo Basile, Varese, Italy), and the animals were then randomised to treatment groups. Oedema measurement was performed again after 7 and 14 days of treatment. Animals were blindly scored by two different investigators for clinical signs of arthritis (redness, swelling, pain of hind limb joints) as follows: 0 = normal; 1 = mild but definite redness and swelling of the ankle or wrist or individual digits, regardless of the number of affected digits; 2 = moderate redness and swelling of ankle or wrist; 3 = severe redness and swelling of the entire paw including digits; and 4 = maximally inflamed limb with involvement of multiple joints. The mean of the scores assigned by the investigators was calculated.
In the comparative experiment vs rofecoxib, mechanical hyperalgesia was assessed at the end of treatment by using a digital pressure application measurement (PAM) device (Ugo Basile). Increasing pressure was applied to the lateral side of the knee until the animal attempted to escape or vocalised. The force required to elicit this response was measured in grams (gram-force). An optimal stimulus increase rate of 100 g/second was used, and mechanical thresholds were reached after approximately 10 seconds. This increase was visualised with a rate meter on the built-in display, so the pressure applied was visually controlled. At the end of the experiment, animals were killed, and their hind paws were explanted and processed for histology.

Another experiment has as its system BZD (central). Put plainly: Benzodiazepine receptor (central) binding. As to conditions: [^3H]flunitrazepam, Rat cerebral cortex.
Experiment [2] concerns arthritic mice (collagen-induced arthritis model). Put plainly: CIA in mice, second study: serum cytokines and signal limb histology. As to conditions: 10 days. It is filed as in vivo, mouse.
In a further experiment the target is M2 (Homo sapiens, UniProt P08172). In words: Muscarinic acetylcholine receptor M2 binding. The following applies: [^3H]AF-DX 384, Human recombinant CHO cells, read-out: CR6086 Activity at 10µM.
For another experiment, the system named is PDGF. In words: PDGF receptor binding. The following applies: [^125I]PDGF BB, Balb/c 3T3 cells.
In another experiment the target is rat EP4 receptor (Rattus norvegicus, UniProt P43114). Put plainly: EP4 radioligand binding assay ([^3H]PGE2), rat receptor. Set-up: the cDNA encoding the full-length rat (NM_032076) or mouse (NM_001136079) EP4 receptors; host or cells: HEK293 (transient). From the text: For rodent EP4 receptor cloning, the cDNA encoding the full-length rat (NM_032076) or mouse (NM_001136079) EP4 receptors cloned in pCMV6 entry was provided by OriGene Inc. (TrueORF Gold, catalogue numbers RN206839 and MC216813; OriGene, Rockville, MD, USA). Expression of rat and mouse receptors was obtained by transfecting HEK293 cells with the respective vector using Lipofectamine 3000 reagent (Thermo Fisher Scientific) according to the manufacturer’s instructions.
Membranes expressing the human EP4 receptor were prepared from stably transfected HEK293 cell line. […] Protein content of the cell membrane suspension was determined using bovine serum albumin (BSA) as a standard.
Experimental procedures were performed according to the method of Abramovitz et al.. […] The residual [^3H]PGE2 binding was determined using a solid scintillation counter (TopCount; PerkinElmer) after at least 1 h of stabilisation. In saturation binding studies, isotherm-binding curves generated with six to eight different concentrations of [^3H]PGE2 (from 0.5 to 25 nM) were evaluated. […]
Specific binding to the receptors was defined as the difference between total binding and non-specific binding, as determined in the presence of an excess of unlabelled ligand. […] Competition curves were analysed to assess the half-maximal inhibitory concentration (IC50). […] The results of replicated curves were expressed as mean ± SEM.

The mark [3] stands for this setting: 30 mg/kg oral daily, mean ± SEM.
The mark [4] stands for this setting: 60 mg/kg oral daily, mean ± SEM.

Where two headings read alike, the source gives them in different places. Marks after values point to notes of the source that are not given here.

Sequence of rat EP4 receptor (P43114 whole entry): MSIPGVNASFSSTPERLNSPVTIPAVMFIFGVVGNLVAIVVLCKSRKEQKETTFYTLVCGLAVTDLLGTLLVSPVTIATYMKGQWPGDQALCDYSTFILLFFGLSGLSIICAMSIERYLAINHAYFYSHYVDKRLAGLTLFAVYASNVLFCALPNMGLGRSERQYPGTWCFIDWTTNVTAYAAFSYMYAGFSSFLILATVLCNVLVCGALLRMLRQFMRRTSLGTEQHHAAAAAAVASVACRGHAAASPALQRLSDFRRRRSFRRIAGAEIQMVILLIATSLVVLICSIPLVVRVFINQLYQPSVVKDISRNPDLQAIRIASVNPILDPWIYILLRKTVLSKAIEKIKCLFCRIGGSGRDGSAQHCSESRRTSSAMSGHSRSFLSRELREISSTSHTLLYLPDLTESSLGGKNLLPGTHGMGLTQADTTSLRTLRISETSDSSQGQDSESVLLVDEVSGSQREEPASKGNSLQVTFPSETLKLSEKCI
Sequence of M2 (P08172 whole entry): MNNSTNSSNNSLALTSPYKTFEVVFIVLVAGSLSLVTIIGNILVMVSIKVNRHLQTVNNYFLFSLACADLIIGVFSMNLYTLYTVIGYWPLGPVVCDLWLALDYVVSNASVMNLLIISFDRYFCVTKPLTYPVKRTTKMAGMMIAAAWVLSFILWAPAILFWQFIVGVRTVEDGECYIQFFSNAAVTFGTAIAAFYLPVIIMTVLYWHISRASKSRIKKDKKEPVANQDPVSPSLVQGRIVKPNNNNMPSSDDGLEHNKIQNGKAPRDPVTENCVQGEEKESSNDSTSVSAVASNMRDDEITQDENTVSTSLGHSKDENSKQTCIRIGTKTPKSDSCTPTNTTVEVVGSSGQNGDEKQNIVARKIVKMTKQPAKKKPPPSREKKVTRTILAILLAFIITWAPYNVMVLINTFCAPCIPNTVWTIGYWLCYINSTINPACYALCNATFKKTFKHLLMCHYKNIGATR

On to `O=C([O-])c1ccc(C2(NC(=O)[C@H]3CC4(CCN3Cc3ccc(C(F)(F)F)cc3)CC4)CC2)cc1.[Na+]` [CR6086, Sodium (R)-4-(1-(6-(4-(trifluoromethyl)benzyl)-6-azaspiro[2.5]octane-5-carboxamido)cyclopropyl)benzoate], for which the “Mechanical hyperalgesia, Day 0” value in experiment [1] (Day 0) was 850.45 ± 59.57^a gram-force. Further, the “Mechanical hyperalgesia, Day 7” value in experiment [1] (Day 7) is 846.33 ± 43.60^b,c gram-force. The “Mechanical hyperalgesia, Day 14” value in experiment [1] (Day 14) is reported as 1023.09 ± 53.97^d gram-force. In addition, the “CR6086 Activity at 10µM” value with BZD (central) was “IN (IN = < 20% displacement or inhibition (all tables))”. Further, in experiment [2] (setting [3]), the IFNγ serum concentration is given as 1.79 ± 0.32 pg/mL, the IL-10 serum concentration is given as 16.17 ± 1.95 pg/mL, the IL-17 serum concentration stood at 2.36 ± 0.62 pg/mL and the TNFα serum concentration is on record as 34.37 ± 2.21 pg/mL. In experiment [2] (setting [4]), this compound registered an IL-10 serum concentration of 18.16 ± 2.65 pg/mL, an IL-17 serum concentration of 0.92 ± 0.20 pg/mL and a TNFα serum concentration of 33.67 ± 3.58 pg/mL. In experiment [2] (60 mg/kg oral once daily), the “effect on IL-6 mean serum concentrations” value is “returned towards normal levels”. Besides, the “histological scores of the signal limb” value in experiment [2] (30 and 60 mg/kg oral once daily) is reported as “acts as a disease modifier”. Further, the inhibition at 10 µM at M2 was under 20%. In the experiment on PDGF, the “CR6086 Activity at 10µM” value is “IN (IN = < 20% displacement or inhibition (all tables))”. The Ki (in general, a measure of affinity in units of concentration, obtained from inhibition or displacement) at rat EP4 receptor ([^3H]PGE2 displacement, transiently transfected HEK293 membranes, read-out: Ki CR6086) is 76.6 ± 12.3 nM. Also, the Ki at rat EP4 receptor (expressed as mass concentration, read-out: Ki value for the rat EP4 receptor (converted)) is 73.2 nM.

The values are drawn from publication PMC5831858, “Pharmacological characterisation of CR6086, a potent prostaglandin E2 receptor 4 antagonist, as a new potential disease-modifying anti-rheumatic drug” (Arthritis Research & Therapy, 2018).
